According to publication PMC4521150, “Discovery of Novel Inhibitors and Fluorescent Probe Targeting NAMPT” (Scientific Reports, 2015):

Target: T1, recombinant human NAMPT (Homo sapiens, UniProt P43490)
T1 construct: His tag (N); made in house; host or cells: E. coli BL21-CodonPlus (DE3)-RIL, pET21a+ vector
Assay: HTS / fixed-concentration NAMPT activity screen (fluorometric)
Format: biochemical
Details: 20 μM compound; analogues of the 46 non-fluorescent inhibitors
Source text: Using our previously established high throughput screening (HTS) platform and recombinant human NAMPT[14][15], we performed a HTS on a chemical library containing 30000 small-molecules (Chemdiv, CA, USA). Our HTS targeting NAMPT was developed based on a fluorometric method for NAMPT activity assay by measuring the fluorescence of nicotinamide mononucleotide (NMN) derivative resulting from the NAMPT enzymatic product NMN through simple chemical reactions (Fig. 1A). The 30000 compounds were dissolved with dimethyl sulfoxide (DMSO); most of compounds were soluble at 10 mM stock solution (94.1%), some compounds insoluble at 10 mM were soluble at 2.5 mM stock solution (4.4%), and the remaining compounds insoluble at 2.5 mM (1.5%) were diluted further during HTS experiments (Fig. 1B). To guarantee the quality of screening, S/N ratio, CV and Z’ factors were monitored throughout the screenings, and all three indices met the requirements of HTS (Fig. 1C–E). After a primary screen and a secondary screen of all compounds at 20 μM, 242 compounds were selected as the hits of NAMPT inhibitors (NAMPT activity < 40%), and the hit rate was ~0.8% (Fig. 1F). […] All these 55 compounds were not reported as NAMPT inhibitors previously. Among the 55 compounds, we noted 46 compounds were non-fluorescent and 9 compounds were fluorescent (Fig. 1F). These fluorescent and non-fluorescent compounds were further studied separately.
HTS was performed using our previously reported method. 0.5 μl stock of each compound (1 mM DMSO stock) was transferred to a 96-well PCR plate for screening. In the primary screening, 5 ng NAMPT in 20 μl reaction buffer [0.4 mM phosphoribosylpyrophosphate (PRPP, Sigma), 2 mM ATP, 0.02% BSA, 2 mM DTT, 12 mM MgCl2 and 50 mM Tris-HCl (pH = 7.5)] was added into each well, the plate was incubated at 37 °C for 5 min, then 4.5 μl substrate of NAM was added to initiate the enzyme reaction, resulting in a final concentration of 2% DMSO, 2 μg/ml NAMPT, 0.2 μM NAM and 20 μM compound. After reacting at 37 °C for 15 min, the enzyme reaction was terminated by heating at 95 °C for 1 min and cooling in an ice bath. The product of NMN was detected through the following approach: after adding 10 μl 20% acetophenone in DMSO and 10 μl 2 M KOH into each well, the mixture was vortex-mixed and kept in ice bath for 2 min. Then 45 μl 88% formic acid was added and the mixture was incubated at 37 °C for 10 min. Finally, 85 μl mixtures in each well were transferred into a flat-bottom 96-well black plate (Greiner), and the fluorescence (F) was measured using a Tecan Infinity M200 plate reader (Tecan Group Ltd.) by setting the excitation and emission wavelength to 382 nm and 445 nm respectively. The last row of each 96-well plate includes six wells of background controls and six wells of reference controls. The relative enzyme activity (Activity%) regulated by specific compound was calculated according to equation (1):
F0 was the averaged fluorescence of six background controls, representing zero activity from a simulated enzyme reaction with only NAMPT but no NAM and compound; F100% was the averaged fluorescence of six reference controls, representing 100% activity from intact enzyme reaction without compound perturbation.
Compounds with Activity% less than 40% were considered as inhibitors and subjected to a secondary screen inhibition validation, in which another background control (FC0), a simulated enzyme reaction with NAMPT and compound but no NAM, was introduced to eliminate the direct and/or indirect influence from compound. At this stage, the Activity% was calculated according to equation (2): […]

T1 sequence (P43490 whole entry): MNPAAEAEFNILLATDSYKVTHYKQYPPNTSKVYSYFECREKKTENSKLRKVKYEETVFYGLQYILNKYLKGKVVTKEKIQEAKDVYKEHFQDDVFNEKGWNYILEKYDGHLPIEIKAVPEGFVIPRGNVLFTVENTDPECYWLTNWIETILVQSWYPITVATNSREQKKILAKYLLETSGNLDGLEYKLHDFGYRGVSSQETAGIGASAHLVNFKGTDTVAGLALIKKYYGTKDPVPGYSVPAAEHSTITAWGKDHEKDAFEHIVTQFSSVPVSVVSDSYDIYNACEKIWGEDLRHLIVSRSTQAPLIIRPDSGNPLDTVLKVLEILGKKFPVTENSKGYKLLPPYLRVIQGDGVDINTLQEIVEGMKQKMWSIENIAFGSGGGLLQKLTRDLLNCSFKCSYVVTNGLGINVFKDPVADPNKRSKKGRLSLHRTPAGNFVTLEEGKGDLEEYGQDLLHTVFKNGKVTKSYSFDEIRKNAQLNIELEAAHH

- NAMPT inhibition activity at 20 μM: Yes
Compound: CCCn1c(=O)c(-c2ccc(C(=O)NCc3cccnc3)cc2)nc2ccccc21 [M049-0244]
